Values of other authors as cited in article PMC6709472 (Antimicrobial Agents and Chemotherapy, 2019).

What was measured:
[1] = read-out: 50% effective concentration [EC50]; in vitro activity quoted for VL development
[2] = system: visceral leishmaniasis (VL); conditions: 12.5 mg/kg of body weight orally twice a day; hamster models of VL

For O=[N+]([O-])c1cn2c(n1)O[C@@H](COc1ccc(-c3ccc(F)cc3)nc1)CC2 [DNDI-0690], the EC50 [1] is listed as 170 nM and the in vivo efficacy [2] is listed as over 99%.
